Experimental findings from article PMC10315472 (Frontiers in Microbiology, 2023) are described below.

SMILES strings stand for the structures. Read-outs that look alike come from different tables or passages of the source. Positions of bridges follow the written chain, without caps; N, C: chain ends. Residues, ends and D or L forms follow the SMILES beside them.

For data set [1], the target named is T1, WT RBD (Severe acute respiratory syndrome coronavirus 2, UniProt P0DTC2). Put plainly: biochemical. It counts as binding, SARS-CoV-2.
The conditions of data set [2]: covalently immobilized onto CM5 via amine groups.
Data set [3] has as its target T1, WT RBD. Put plainly: biochemical. The data set is classed as binding, SARS-CoV-2. This is another data set of the same source.

As usually defined, the Kd is the free concentration of one partner at which half of the binding sites on the other are occupied at equilibrium, for simple one-to-one binding. By koff is commonly meant a measure of how fast the partners let go of each other. A higher koff goes with fast dissociation. By kon is commonly meant a measure of how fast the partners come together. The low end stands for slower complex formation, the high end for faster complex formation. On WT RBD [1], `CC[C@H](C)[C@@H]1NC(=O)CNC(=O)[C@H](CCCCN)NC(=O)[C@@H]2CSSC[C@@H](C(=O)N[C@@H](Cc3ccc(O)cc3)C(=O)O)NC(=O)[C@H](CCCCN)NC(=O)[C@@H]3CSSC[C@H](NC(=O)[C@H](CCCNC(=N)N)NC(=O)[C@H](CO)NC(=O)[C@H](CC(=O)O)NC(=O)[C@H](CC(N)=O)NC(=O)CNC(=O)CNC(=O)[C@H](Cc4ccccc4)NC(=O)[C@H]([C@@H](C)CC)NC(=O)[C@H]([C@@H](C)O)NC(=O)[C@@H](NC(=O)CNC(=O)[C@H](Cc4c[nH]c5ccccc45)NC(=O)CN)CSSC[C@H](NC(=O)[C@H](Cc4ccc(O)cc4)NC(=O)CNC(=O)CNC(=O)[C@H](CCCNC(=N)N)NC(=O)[C@H](Cc4ccc(O)cc4)NC(=O)CNC(=O)[C@H](CCCNC(=N)N)NC1=O)C(=O)N[C@@H](CCCCN)C(=O)N[C@@H](CC(C)C)C(=O)NCC(=O)NCC(=O)N[C@@H]([C@@H](C)CC)C(=O)N3)C(=O)N[C@@H](Cc1c[nH]cn1)C(=O)N[C@@H](CCCNC(=N)N)C(=O)N[C@@H](Cc1c[nH]cn1)C(=O)N2` [Emorisin] (H-GWGCTIFGGNDSRCHRHCKGIRGYRGGYCKLGGICKCY-OH; disulfide 4-29, 14-35, 18-37) yielded a Kd of 7.6 nM, a koff of 0.045 s⁻¹ and a kon of 5.92e+06 M⁻¹ s⁻¹.

At WT RBD [1], `CC[C@H](C)[C@@H]1NC(=O)[C@H](CCCCN)NC(=O)CNC(=O)[C@H](CCCNC(=N)N)NC(=O)[C@@H]2CSSC[C@H](NC(=O)CNC(=O)[C@H](Cc3ccccc3)NC(=O)CN)C(=O)N3CCC[C@H]3C(=O)N[C@@H](Cc3c[nH]c4ccccc34)C(=O)N[C@@H](CC(N)=O)C(=O)N[C@@H](C)C(=O)N[C@@H](Cc3ccc(O)cc3)C(=O)N[C@@H](CCC(=O)O)C(=O)N[C@H]3CSSC[C@H](NC(=O)[C@H]([C@@H](C)O)NC(=O)[C@H](CCC(N)=O)NC(=O)[C@H](CCCNC(=N)N)NC1=O)C(=O)N[C@@H](Cc1c[nH]cn1)C(=O)N[C@H](C(=O)N[C@@H](Cc1ccc(O)cc1)C(=O)O)CSSC[C@H](NC(=O)[C@H](Cc1c[nH]cn1)NC(=O)[C@H](CCCNC(=N)N)NC(=O)[C@H](CC(=O)O)NC3=O)C(=O)N[C@@H](C(C)C)C(=O)N[C@@H](CO)C(=O)N[C@@H](CCCCN)C(=O)NCC(=O)N[C@@H](Cc1ccc(O)cc1)C(=O)N[C@@H]([C@@H](C)O)C(=O)NCC(=O)NCC(=O)N[C@@H](CC(N)=O)C(=O)N2` [AMSIN] (H-GFGCPWNAYECDRHCVSKGYTGGNCRGKIRQTCHCY-OH; disulfide 4-25, 11-33, 15-35) came in with a Kd of 193 nM, a koff of 0.00219 s⁻¹ and an association rate constant (kon) of 11300 M⁻¹ s⁻¹. For the same compound, the “stability on CM5 chip” value in data set [2] is listed as “rather stable”.

In turn, `CC[C@H](C)[C@@H]1NC(=O)[C@H](CCCCN)NC(=O)CNC(=O)[C@H](CCCNC(=N)N)NC(=O)[C@@H]2CSSC[C@H](N)C(=O)N3CCC[C@H]3C(=O)N[C@@H](Cc3c[nH]c4ccccc34)C(=O)N[C@@H](CC(N)=O)C(=O)N[C@@H](C)C(=O)N[C@@H](Cc3ccc(O)cc3)C(=O)N[C@@H](CCC(=O)O)C(=O)N[C@H]3CSSC[C@H](NC(=O)[C@H]([C@@H](C)O)NC(=O)[C@H](CCC(N)=O)NC(=O)[C@H](CCCNC(=N)N)NC1=O)C(=O)N[C@@H](Cc1c[nH]cn1)C(=O)N[C@H](C(=O)N[C@@H](Cc1ccc(O)cc1)C(=O)O)CSSC[C@H](NC(=O)[C@H](Cc1c[nH]cn1)NC(=O)[C@H](CCCNC(=N)N)NC(=O)[C@H](CC(=O)O)NC3=O)C(=O)N[C@@H](C(C)C)C(=O)N[C@@H](CO)C(=O)N[C@@H](CCCCN)C(=O)NCC(=O)N[C@@H](Cc1ccc(O)cc1)C(=O)N[C@@H]([C@@H](C)O)C(=O)NCC(=O)NCC(=O)N[C@@H](CC(N)=O)C(=O)N2` [(ΔGFG)AMSIN] (H-CPWNAYECDRHCVSKGYTGGNCRGKIRQTCHCY-OH; disulfide 1-22, 8-30, 12-32) displayed a Kd at WT RBD [3] of 119 nM. This counts as sub-micromolar.
